One assay has as its target T1, MNK1 (Homo sapiens, UniProt Q9BUB5).
T1 construct: purchased Life Technologies or Carna Biosciences PV6023 or 02-145; host or cells: baculovirus infected insect cells
Kind of assay: MNK inhibition assay (Z-Lyte kinase assay, Ser/Thr 7 peptide). It is filed as biochemical. The note with it: for pIC50: recombinant GST-MNK1, 3 hours at 31° C.; for inhibition at 1 µM: read-out: Inhibition of MNK1 activity at indicated concentration. An outline of the steps:
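Recombinant GST-MNK1 from baculovirus-infected insect cells, Z-Lyte Ser/Thr 7 peptide, enzyme set for ~30% phosphorylation in buffer-only wells; 3 hours at 31° C. Compounds at 50–10000 nM (potent ones down to 0.5 nM), at least duplicate. IC50 from % substrate phosphorylation versus buffer-only wells, fluorescence read-out.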

The test system of assay [1] is human pancreatic cancer cell line MiaPaCa2 (ATCC CRL-1420). Kind of assay: Cell growth assay (CellTiterGlo, 72 hours). It is filed as cell-based. Conditions: for pIC50: MIA PaCa-2, MiaPaCa2 cells, 72 hours, read-out: IC50 MiaPaCa. An outline of the steps:
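MiaPaCa2 cells (10^3/well) seeded in supplemented DMEM overnight, then exposed in quadruplicate to compound at 100 down to 0.1 μM for 72 h at 37° C. Growth read by CellTiterGlo luminescence, medium-only background subtracted, normalised to untreated cells; IC50 = concentration reducing growth to 50%.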

IC50 and inhibition data for 39 molecules are collected here from US20200031811A1, “SUBSTITUTED MONO- AND POLYAZANAPHTHALENE DERIVATIVES AND THEIR USE” (Basilea Pharmaceutica International AG, priority 2015, published 2020).

pIC50: −log10 of the molar value.

By pIC50 is commonly meant the negative decadic logarithm of the IC50, by convention in mol/L.

T1 sequence (Q9BUB5 whole entry): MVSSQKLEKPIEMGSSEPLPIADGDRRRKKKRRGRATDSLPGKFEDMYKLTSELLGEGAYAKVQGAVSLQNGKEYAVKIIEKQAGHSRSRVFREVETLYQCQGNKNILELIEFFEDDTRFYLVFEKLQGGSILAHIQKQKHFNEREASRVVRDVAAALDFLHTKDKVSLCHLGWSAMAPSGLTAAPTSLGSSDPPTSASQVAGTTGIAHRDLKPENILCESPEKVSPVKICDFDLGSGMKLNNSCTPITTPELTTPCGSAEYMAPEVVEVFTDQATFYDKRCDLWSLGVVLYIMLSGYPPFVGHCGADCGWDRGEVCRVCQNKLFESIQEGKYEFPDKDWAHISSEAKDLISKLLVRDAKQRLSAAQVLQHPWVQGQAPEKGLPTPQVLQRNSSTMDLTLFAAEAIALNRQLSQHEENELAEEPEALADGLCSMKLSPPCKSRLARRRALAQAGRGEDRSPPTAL

Consider `NC1CCN(Cc2cc3c(-c4cc5ccccc5o4)cncc3c(Cl)c2Cl)CC1` [Example 280, 1-[[4-(Benzofuran-2-yl)-7,8-dichloro-6-isoquinolyl]methyl]piperidin-4-amine], for which the pIC50 at MNK1 was 6.27; in assay [1], 5.25.
The matching figures for `Nc1cc[n+](Cc2ccc3cncc(-c4cc5ccccc5o4)c3c2)cc1C(F)(F)F` [Example 58]: 7.30 and 4.87.
For the molecule `NCc1cccc(-c2cncc3ccc(CN4CCC(N)CC4)cc23)c1` [Example 184], the inhibition at 1 µM at MNK1 is 35%. Besides, the pIC50 in assay [1] was 5.10.
Consider `Oc1ccc(-c2cncc3ccc(CN4CCC(O)CC4)cc23)cc1` [Example 23], for which the pIC50 at MNK1 was 5.63; in assay [1], 4.51.
With `COc1cnccc1NCc1ccc2cncc(-c3cc4ccccc4o3)c2c1` [Example 72], the results for the pIC50 (at MNK1; in assay [1]) were 7.92 and 5.29, respectively.
For the molecule `N[C@H]1CC[C@H](Nc2cc(Cl)c3cncc(-c4cc5ccccc5o4)c3c2)CC1` [Example 142, N4-[4-(Benzofuran-2-yl)-8-chloro-6-isoquinolyl]cyclohexane-1,4-diamine], the pIC50 at MNK1 was 6.74; in assay [1] it was 5.42.
As for `Nc1cc(CNc2ccc3cncc(-c4cc5ccccc5o4)c3c2)ccn1` [Example 190, N-[(2-Amino-4-pyridyl)methyl]-4-(benzofuran-2-yl)isoquinolin-6-amine], the pIC50 at MNK1 is 7.06; in assay [1] it was 5.13.
On to `Nc1ncc(-c2ccc(F)c(F)c2)c2cc(CN3CCC(N)CC3)cc(Cl)c12` [Example 285], for which the values for the pIC50 (on MNK1; in assay [1]) were 6.82 and 5.17, respectively.
For `FC(F)(F)c1cnccc1NCc1ccc2cncc(-c3cc4ccccc4o3)c2c1` [Example 77] the same measures were 5.95 and 5.00.
For `c1ccc2oc(-c3cncc4ccc(NC5CCCNC5)cc34)cc2c1` (stereo not drawn) [Example 212] the same measures were 6.38 and 5.77.
As for `NC1CCN(Cc2ccc3cncc(-c4cccc(NC(=O)Nc5ccccc5)c4)c3c2)CC1` [Example 32], the results for the pIC50 (on MNK1; in assay [1]) were 5.62 and 5.08, respectively.
The matching figures for `NC1CCN(Cc2ccc3cncc(-c4cc5cnccc5o4)c3c2)CC1` [Example 275]: 6.76 and 5.29.
For the molecule `NC1CCN(Cc2ccc3cncc(-c4ccc5ccccc5c4)c3c2)CC1` [Example 174], the pIC50 at MNK1 is 6.33; in assay [1] it was 5.33.
The matching figures for `c1ccc2oc(-c3cncc4ccc(OCc5ccncc5)cc34)cc2c1` [Example 146, 4-(Benzofuran-2-yl)-6-(4-pyridylmethoxy)isoquinoline]: 6.57 and 4.70.
As for `NC1CCN(Cc2ccc3cncc(-c4ccc5ncccc5c4)c3c2)CC1` [Example 195], the results for the pIC50 (on MNK1; in assay [1]) were 6.10 and 4.79, respectively.
Regarding `NC1CCN(Cc2ccc3cncc(-c4ccc(CO)cc4)c3c2)CC1` [Example 181], the pIC50 at MNK1 was 6.28; in assay [1] it was 4.64.
The matching figures for `Nc1ncc(-c2cc3ccccc3o2)c2cc(CN3CCNCC3)ccc12` [Example 223]: 5.94 and 5.40.
Take `NCc1ccc(-c2cncc3ccc(CN4CCC(N)CC4)cc23)cc1` [Example 183]: the results for the pIC50 (at MNK1; in assay [1]) were 6.51 and 5.06, respectively.
On to `NC1CCN(Cc2ccc3cncc(-c4ccc(Cl)c(Cl)c4)c3c2)CC1` [Example 200], for which the pIC50 on MNK1 was 6.61; in assay [1] it was 4.79.
As to `N[C@@H]1CCN(Cc2ccc3cncc(-c4cc5ccccc5o4)c3c2)C[C@@H]1F` [Example 206], the pIC50 on MNK1 was 7.77; in assay [1] it was 5.09.
For `Nc1ncc(-c2ccccc2)c2cc(CN3CCC(N)CC3)ccc12` [Example 92], the pIC50 was 6.24 on MNK1 and 5.14 in assay [1].
For `CN(CCCN)Cc1ccc2cncc(-c3ccc(O)cc3)c2c1` [Example 36] the same measures were 7.00 and 4.69.
For `NC1CCN(Cc2ccc3cncc(-c4ccoc4)c3c2)CC1` [Example 179] the same measures were 6.56 and 5.30.
The matching figures for `N[C@H]1CC[C@H](Nc2cc(Cl)c3cncc(-c4ccccc4)c3c2)CC1` [Example 308]: 7.55 and 5.63.
For `NC1CCN(Cc2ccc3cncc(-c4ccc5[nH]ccc5c4)c3c2)CC1` [Example 168], the pIC50 at MNK1 is 6.12; in assay [1] it was 4.91.
The matching figures for `NC1CCN(Cc2ccc3cncc(-c4ccc(NC(=O)Nc5ccccc5)cc4)c3c2)CC1` [Example 31, 1-[4-[6-[(4-Amino-1-piperidyl)methyl]-4-isoquinolyl]phenyl]-3-phenyl-urea]: 6.32 and 5.66.
As for `Nc1cccc(Nc2ccc3cncc(-c4cc5ccccc5o4)c3c2)c1` [Example 135], the pIC50 at MNK1 was 5.33; in assay [1], 4.96.
Take `CC(=O)Nc1cccc(-c2cncc3ccc(CN4CCC(N)CC4)cc23)c1` [Example 19]: the inhibition at 1 µM at MNK1 was 39%. In assay [1], the pIC50 is 4.53.
For the molecule `Nc1ncc(-c2cc3ccccc3o2)c2cc(O[C@H]3CC[C@H](N)CC3)cc(Cl)c12` [Example 318, trans-6-(4-Aminocyclohexoxy)-4-(benzofuran-2-yl)-8-chloro-isoquinolin-1-amine], the pIC50 at MNK1 was 6.53; in assay [1] it was 5.42.
In the case of `c1coc(-c2cncc3ccc(CN4CCNCC4)cc23)c1` [Example 225], the negative logarithm of the IC50 (pIC50) at MNK1 was 7.02. In addition, the inhibition at 50 µM in assay [1] (MIA PaCa-2, at 50 μM, read-out: Inhibition of MiaPaCa growth at indicated concentration) worked out at 65%.
With `COc1cccc(-c2cncc3ccc(CN4CCC(N)CC4)cc23)c1` [Example 198], the pIC50 at MNK1 is 6.05; in assay [1] it was 4.95.
For the molecule `O=C(c1ccc2cncc(-c3cc4ccccc4o3)c2n1)N1CCNCC1` [Example 305], the figures for the pIC50 (on MNK1; in assay [1]) were 5.89 and 4.55, respectively.
On to `COc1cc(CN2CCC(N)CC2)cc2c(-c3ccc(Cl)cc3)cnc(N)c12` [Example 295, 6-[(4-Amino-1-piperidyl)methyl]-4-(4-chlorophenyl)-8-methoxy-isoquinolin-1-amine], for which the figures for the pIC50 (on MNK1; in assay [1]) were 6.52 and 5.77, respectively.
For `NC1CCN(Cc2ccc3cncc(-c4cc5ccccc5s4)c3c2)CC1` [Example 170] the same measures were 6.44 and 5.59.
For `NC1CCN(Cc2ccc3cncc(-c4nc5ccccc5o4)c3c2)CC1` [Example 228] the same measures were 6.32 and 5.30.
`Cc1ccc(-c2cncc3ccc(CN4CCNCC4)cc23)o1` [Example 226]: the pIC50 at MNK1 was 6.64; in assay [1], 4.69.
Turning to `Nc1ncc(-c2ccccc2)c2cc(N[C@H]3CC[C@H](N)CC3)cc(Cl)c12` [Example 312, Trans-N6-(4-aminocyclohexyl)-8-chloro-4-phenyl-isoquinoline-1,6-diamine], the pIC50 was 6.77 at MNK1 and 5.89 in assay [1].
For `COc1cc(CN2CCC(N)CC2)cc2c(-c3cccs3)cncc12` [Example 245] the same measures were 7.62 and 5.48.
For the molecule `NC1CCN(Cc2cc3c(-c4cc5ccccc5o4)cncc3cc2Cl)CC1` [Example 250], the results for the negative logarithm of the IC50 (pIC50) (at MNK1; in assay [1]) were 7.19 and 5.31, respectively.
